Results on 14 compounds are retold here after ChEMBL document CHEMBL1137120, “Synthesis and biological evaluation of flavonoids as vasorelaxant agents” (2004).

Molecules are shown by their SMILES.

The species entered for the experiment is Rattus norvegicus. Nature of the experiment: Tested for vasorelaxant activity in rat thoracic aorta rings against PE-induced contractions. The experiment is classed as functional.
`O=c1cc(-c2ccc3c(c2)OCO3)oc2cc(O)cc(O)c12` had a Maximal relaxation of 91.3%. On to `Cc1ccc(-c2cc(=O)c3c(O)cc(O)cc3o2)cc1`, for which the Maximal relaxation amounted to 77.2%. The figure for `Cc1c(O)c(C)c2c(c1O)C(=O)C(O)C(c1ccc(O)cc1)O2` (centres undefined) is 64.4%; for `O=c1cc(-c2cccc(Br)c2)oc2cc(O)cc(O)c12` it is 95%; for `O=c1cc(-c2ccc(Cl)cc2)oc2cc(O)cc(O)c12` it is 92.7%.

`COc1cccc(-c2cc(=O)c3c(O)cc(O)cc3o2)c1` showed a Maximal relaxation of 80.8%. As to `O=c1c(O[C@@H]2OC[C@@H](O)[C@H](O)[C@@H]2O)c(-c2ccc(O)c(O)c2)oc2cc(O)cc(O)c12`, the Maximal relaxation worked out at 24.7%. For the compound `O=c1c(O[C@@H]2OC[C@@H](O)[C@@H](O)[C@H]2O)c(-c2ccc(O)c(O)c2)oc2cc(O)cc(O)c12`, the Maximal relaxation was found to be 35.1%. The figure for `COCOc1c(-c2ccc(O)c(O)c2)oc2cc(O)cc(O)c2c1=O` is 71.6%; for `O=c1cc(-c2ccccc2)oc2cc(O[C@@H]3O[C@H](CO)[C@@H](O)C(O)[C@H]3O)c(O)c(O)c12` (single isomer, unassigned) it is 36.2%. The value for `O=c1c(O[C@@H]2O[C@H](CO)C(O)C(O)[C@H]2O)c(-c2ccc(O)c(O)c2)oc2cc(O)cc(O)c12` (single isomer, unassigned) [ISOQUERCETIN] was 34%; that for `C[C@@H]1O[C@@H](OC[C@H]2O[C@@H](Oc3c(-c4ccc(O)c(O)c4)oc4cc(O)cc(O)c4c3=O)C(O)[C@@H](O)[C@@H]2O)[C@H](O)[C@H](O)[C@H]1O` (single isomer, unassigned) [RUTIN] was 24.7%; that for `O=c1cc(-c2ccc(O)c(O)c2)oc2cc(O)cc(O)c12` [LUTEOLIN] was 70.2%.

Compound `O=c1c(O)c(-c2ccc(O)c(O)c2)oc2cc(O)cc(O)c12` [QUERCETIN] yielded a Maximal relaxation of 45.9%.
